Test system: L1210 leukemia
Assay: NCI 3LE31, i.p.-implanted L1210 lymphoid leukemia
Format: in vivo, DBA/2 mice
Settings: for activity in i.p.-implanted lymphoid leukemia test (in words): 3LE31, reproducible T/C of 150% or higher is considered significant activity
Experimental: The spectrum of antitumor activity of the compound of Example 1 was determined employing a number of standard National Cancer Institute (NCI) protocols. The antitumor activity was determined in vivo against several different tumors, employing various treatment schedules and routes of administration.
Samples of the test compounds of Examples 1-10 and a number of structurally-related control compounds were tested in accordance with National Cancer Institute test protocol 3LE31 (NCI Protocol 1.100, Cancer Chemotherapy Reports Part 3, Vol. 3, No. 2, September 1972) to determine the effects of the several compounds on i.p.-implanted L1210 leukemia (J. Nat'l. Cancer Inst. 13(5):1328, 1953). Each test involved implantation of the leukemia cells in six DBA/2 mice, one sex per experiment, the male mice weighing a minimum of 18 grams and the female mice weighing a minimum of 17 grams, and all of the test animals being within a three gram weight range. The test compound was administered by i.p. injections, in 0.1 ml. doses of diluted ascitic fluid (10^5 cells per dose), commencing one day after the tumor implant and continuing daily for nine days.
The test animals were weighed and survivors recorded on a regular basis during a thirty day test period. The ratio of survival time for the treated and control animals (T/C) was determined as a percentage.
The tests were carried out at varying dosage levels and with varying numbers of repetitions, depending upon the results obtained with each test compoud. […] A reproducible T/C of 150% or higher is considered significant activity.
The number of mice "cured", viz., those surviving from each animal test group after the thirty day test period, is indicated in parenthesis following the T/C percentage data in Table III below: […]

[1] = Mus musculus, L1210, ip, 25 mg/kg i.p. daily for nine days, read-out: T/C % (survival time treated/control)
[2] = Mus musculus, L1210, ip, 50 mg/kg i.p. daily for nine days, read-out: T/C % (survival time treated/control)
[3] = Mus musculus, L1210, ip, 100 mg/kg i.p. daily for nine days, read-out: T/C % (survival time treated/control)
[4] = Mus musculus, L1210, ip, 200 mg/kg i.p. daily for nine days, read-out: T/C % (survival time treated/control)
[5] = 25 mg/kg i.p. daily for nine days
[6] = 50 mg/kg i.p. daily for nine days
[7] = 100 mg/kg i.p. daily for nine days
[8] = 200 mg/kg i.p. daily for nine days

Row | SMILES | response vs control in vivo at 25 mg/kg [1] [%] | response vs control in vivo at 50 mg/kg [2] [%] | response vs control in vivo at 100 mg/kg [3] [%] | response vs control in vivo at 200 mg/kg [4] [%] | T/C % (survival time treated/control) [8] | also measured
1 | O=C(Nc1ccc(F)cc1F)c1c(O)[nH]c(=S)[nH]c1=O [Example 9, N-(2,4-difluorophenyl)-1,2,3,4-tetrahydro-6-hydroxy-4-oxo-1-thioxo-5-pyrimidinecarboxamide] | 113 | 113 | 114 | 133 |  | 
2 | O=C(Nc1cccc(F)c1)c1c(O)[nH]c(=S)[nH]c1=O [Example 4, N-(3-fluorophenyl)-1,2,3,4-tetrahydro-6-hydroxy-4-oxo-2-thioxo-5-pyrmidinecarboxamide] | 114 | 114 | 128 | 155 |  | 
3 | Cn1c(O)c(C(=O)Nc2ccc(Cl)cc2)c(=O)n(C)c1=S [Control M] |  |  |  |  | Toxic | T/C % (survival time treated/control) [5]: Toxic; T/C % (survival time treated/control) [6]: Toxic; T/C % (survival time treated/control) [7]: Toxic; response vs control in vivo at 1.5 mg/kg (Mus musculus, L1210, ip, 1.5 mg/kg i.p. daily for nine days, read-out: T/C % (survival time treated/control)): 106%; response vs control in vivo at 3 mg/kg (Mus musculus, L1210, ip, 3 mg/kg i.p. daily for nine days, read-out: T/C % (survival time treated/control)): 92%; response vs control in vivo at 6 mg/kg (Mus musculus, L1210, ip, 6 mg/kg i.p. daily for nine days, read-out: T/C % (survival time treated/control)): 95%; response vs control in vivo at 12 mg/kg (Mus musculus, L1210, ip, 12 mg/kg i.p. daily for nine days, read-out: T/C % (survival time treated/control)): 106%; response vs control in vivo at 0.75 mg/kg (Mus musculus, L1210, ip, .75 mg/kg i.p. daily for nine days, read-out: T/C % (survival time treated/control)): 102%
4 | COc1ccc(NC(=O)c2c(O)[nH]c(=S)[nH]c2=O)cc1 [Example 6, 1,2,3,4-tetrahydro-6-hydroxy-N-(4-methoxyphenyl)-4-oxo-2-thioxo-5-pyrimidinecarboxamide] | 112 | 108 | 104 | 127 |  | response vs control in vivo at 400 mg/kg (Mus musculus, L1210, ip, 400 mg/kg i.p. daily for nine days, read-out: T/C % (survival time treated/control)): 127%
5 | O=C(Nc1ccccc1F)c1c(O)[nH]c(=S)[nH]c1=O [Example 8, N-(2-fluorophenyl)-1,2,3,4-tetrahydro-6-hydroxy-4-oxo-2-thioxo-5-pyrimidinecarboxamide] | 148 | 105 | 128 | 118 |  | 
6 | CC(C)c1cccc(C(C)C)c1NC(=O)c1c(O)n(-c2ccccc2)c(=S)n(-c2ccccc2)c1=O [Control U] | 101 | 100 | 104 | 112 |  | 
7 | O=C(Nc1ccc(Cl)cc1)c1c(O)[nH]c(=S)[nH]c1=O [Control A] | 110 | 121 | 125 |  | Toxic | T/C (3LE31, upon further testing): less than 125%; activity in i.p.-implanted lymphoid leukemia test (in words): inactive
8 | CCOc1ccc(NC(=O)c2c(O)[nH]c(=S)[nH]c2=O)cc1 [Example 7, N-(4-ethoxyphenyl)-1,2,3,4-tetrahydro-6-hydroxy-4-oxo-2-thioxo-5-pyrimidinecarboxamide] | 115 |  | 178 |  | Toxic | response vs control in vivo at 6.25 mg/kg (Mus musculus, L1210, ip, 6.25 mg/kg i.p. daily for nine days, read-out: T/C % (survival time treated/control)): 102%; response vs control in vivo at 12.5 mg/kg (Mus musculus, L1210, ip, 12.5 mg/kg i.p. daily for nine days, read-out: T/C % (survival time treated/control)): 97%
9 | O=C(Nc1ccc(F)cc1)c1c(O)[nH]c(=S)[nH]c1=O [Example 5, N-(4-fluorophenyl)-1,2,3,4-tetrahydro-6-hydroxy-4-oxo-2-thioxo-5-pyrimidinecarboxamide] | 111 | 112 | 133 |  | Toxic | activity in i.p.-implanted lymphoid leukemia test (in words): With the exception of the compound of Example 5, the materials of the other examples similarly exhibited significant activity
10 | O=C(Nc1ccc(Cl)cc1)c1c(O)[nH]c(=S)n(-c2ccccc2)c1=O [Control Q] | 100 |  |  |  | Toxic | T/C % (survival time treated/control) [6]: 92%; T/C % (survival time treated/control) [7]: 112%
11 | O=C(Nc1ccccc1)c1c(O)n(-c2ccccc2)c(=S)n(-c2ccccc2)c1=O [Control S] | 97 | 100 |  |  |  | 
12 | Cn1c(=S)[nH]c(O)c(C(=O)Nc2cccc([N+](=O)[O-])c2)c1=O [Control J] |  |  |  |  | 101% | T/C % (survival time treated/control) [5]: 100%; T/C % (survival time treated/control) [6]: 94%; T/C % (survival time treated/control) [7]: 104%
13 | Cn1c(O)c(C(=O)Nc2ccccc2)c(=O)n(C)c1=S [Control K] | 107 | 109 | 121 |  | Toxic | 
14 | Cn1c(=S)[nH]c(O)c(C(=O)Nc2cccc([N+](=O)[O-])c2)c1=O [Control I] | 102 | 98 | 102 | 112 |  | 
15 | Cc1ccccc1NC(=O)c1c(O)[nH]c(=S)[nH]c1=O [Example 3, 1,2,3,4-tetrahydro-6-hydroxy-N-(2-methylphenyl)-4-oxo-2-thioxo-5-pyrimidine-carboxamide] | 108 | 112 |  |  | Toxic | 
16 | Cc1ccccc1NC(=O)c1c(O)[nH]c(=O)[nH]c1=O [Control D] | 108 | 104 | 106 | 124 |  | 
17 | O=C(Nc1ccccc1)c1c(O)n(-c2ccccc2)c(=S)n(-c2ccccc2)c1=O [Control T] |  |  |  |  |  | T/C % (survival time treated/control) [5]: 102%; T/C % (survival time treated/control) [6]: 109%; T/C % (survival time treated/control) (400 mg/kg i.p. daily for nine days): 109%
18 | O=c1[nH]c(=S)[nH]c(O)c1C(=S)Nc1ccccc1 [Control W] | 101 | 102 | 94 | 103 |  | 
19 | O=c1[nH]c(O)c(C(=S)Nc2ccccc2)c(=O)[nH]1 [Control X] | 105 | 98 | 97 | 104 |  | 
20 | Cc1ccc(C)c(NC(=O)c2c(O)n(C)c(=S)n(C)c2=O)c1 [Control N] | 103 |  |  |  | Toxic | T/C % (survival time treated/control) [6]: Toxic; T/C % (survival time treated/control) [7]: Toxic
21 | COc1ccc(NC(=O)c2c(O)[nH]c(=O)[nH]c2=O)cc1 [Control F] | 109 | 105 | 105 | 117 |  | 
22 | O=C(Nc1ccccc1)c1c(O)[nH]c(=O)[nH]c1=O [Control B] | 118 |  |  |  |  | number of mice cured (surviving after thirty day test period) (200 mg/kg i.p. daily for nine days, six mice): 2; activity in i.p.-implanted lymphoid leukemia test (in words): exhibited significant activity
23 | O=C(Nc1ccc(Cl)cc1)c1c(O)[nH]c(=S)n(-c2ccccc2)c1=O [Control R] |  |  |  |  | Toxic | T/C % (survival time treated/control) [5]: 106%; T/C % (survival time treated/control) [6]: 121%; T/C % (survival time treated/control) [7]: 88%
24 | Cn1c(O)c(C(=O)Nc2ccccc2)c(=O)n(C)c1=S [Control L] |  |  |  |  | Toxic | T/C % (survival time treated/control) [5]: 108%; T/C % (survival time treated/control) [6]: Toxic; T/C % (survival time treated/control) [7]: Toxic
25 | Cn1c(=S)[nH]c(O)c(C(=O)Nc2ccccc2)c1=O [Control G] | 94 | 98 | 87 |  | Toxic | 

From patent US4634707A, “5-Pyrimidinecarboxamides and treatment of leukemia and tumors therewith” (Uniroyal Chemical Company, priority 1984, dated 1987)
